Assay [1] deals with Sphingosine 1-phosphate receptor 3 (Homo sapiens, UniProt Q99500). Nature of the assay: (§1) GTPgammaS Binding Assay: Compounds were loaded in a 384 Falcon v-bottom plate (0.5 ul/well in a 11 point, 3-fold dilution). Membranes prepared from S1P1/CHO cells or EDG3-Ga15-bla HEK293T cells were added to the compound plate (40 ul/well, final protein 3 ug/well) with MULTIDROP. [35S]GTP (1250 Ci/mmol, Perkin Elmer) was diluted in assay buffer: 20 mM HEPES, pH7.5, 10 mM MgCl2, 150 mM NaCl, 1 mM EGTA, 1 mM DTT, 10 uM GDP, 0.1% fatty acid free BSA, and 10 ug/ml Saponin to 0.4 nM. 40 ul of the [35S] GTP solution was added to the compound plate with a final concentration of 0.2 nM. The reaction was kept at room temperature for 45 min. At the end of incubation, all the mixtures in the compound plate were transferred to Millipore 384-well FB filter plates via the VELOCITY11 Vprep liquid handler. The filter plate was washed with water 4 times by using the manifold Embla plate washer and dried at 60° C. for 45 min. MicroScint 20 scintillation fluid (30 ul) was added to each well. In kind it is functional, cell membranes.
Sphingosine 1-phosphate receptor 3, sequence (Q99500 whole entry): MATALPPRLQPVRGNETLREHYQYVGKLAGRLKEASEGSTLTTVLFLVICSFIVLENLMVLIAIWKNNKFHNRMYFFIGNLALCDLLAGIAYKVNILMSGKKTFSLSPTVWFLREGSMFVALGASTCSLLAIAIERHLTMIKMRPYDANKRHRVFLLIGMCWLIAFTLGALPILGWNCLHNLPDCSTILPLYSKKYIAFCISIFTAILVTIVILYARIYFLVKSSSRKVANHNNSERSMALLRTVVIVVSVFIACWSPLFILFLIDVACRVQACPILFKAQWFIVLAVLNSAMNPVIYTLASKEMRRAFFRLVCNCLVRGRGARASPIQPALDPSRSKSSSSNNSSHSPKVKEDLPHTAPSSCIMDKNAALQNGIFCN

In assay [2] the target is Sphingosine 1-phosphate receptor 1 (Homo sapiens, UniProt P21453). The assay is described as §1. In kind it is functional, cell membranes.
Sphingosine 1-phosphate receptor 1, sequence (P21453 whole entry): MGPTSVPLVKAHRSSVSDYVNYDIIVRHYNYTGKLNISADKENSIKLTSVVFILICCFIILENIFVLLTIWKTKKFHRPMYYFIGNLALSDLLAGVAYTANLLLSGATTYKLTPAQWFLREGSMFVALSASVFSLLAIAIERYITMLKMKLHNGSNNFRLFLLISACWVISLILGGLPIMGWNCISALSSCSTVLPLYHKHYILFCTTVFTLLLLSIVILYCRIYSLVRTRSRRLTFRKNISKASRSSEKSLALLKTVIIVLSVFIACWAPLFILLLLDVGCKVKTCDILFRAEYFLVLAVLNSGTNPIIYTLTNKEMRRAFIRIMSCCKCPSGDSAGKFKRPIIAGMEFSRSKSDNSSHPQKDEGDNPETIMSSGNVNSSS

EC50 data for 1 molecule are collected here from ChEMBL document CHEMBL3886365, “Substituted oxadiazole compounds” (2015).

On to `FC(F)(F)Oc1ccc(-c2noc(CCC3(c4ccccc4)CCCCC3)n2)cc1`, for which the EC50 (commonly the concentration at which the effect is half-maximal) in assay [1] is more than 62 µM; in assay [2], 5.7 µM.
